The results in this text go back to PubChem BioAssay AID330 (DTP/NCI, 2004).

Where “and” joins values, the source holds several entries; their conditions need not be identical. Equal values may be shown once. Inconclusive results and toxic doses are left out.

The assay relates to P388 leukemia ip, CD2F1 mice, survival T/C. The experiment in a line: NCI In Vivo Anticancer Drug Screen. Data for tumor model P388 Leukemia (intraperitoneal) in CD2F1 (CDF1) mice. The note with it: endpoint: median survival time, higher = longer survival. In short, it runs like this:
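Mice carrying the transplanted tumor received test compound or vehicle. Survival was recorded in each group, and the value is the treated-group measurement divided by that of the vehicle-treated control group.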

[1] abbreviates: dose: 100.0 mg/kg/injection, schedule: Q01DX009 (ip), vehicle: saline.
Setting [2] is: dose: 50.0 mg/kg/injection, schedule: Q01DX005 (ip), vehicle: Klucel (hydroxypropylcellulose) (HPC).
Where [3] appears, read: dose: 100.0 mg/kg/injection, schedule: Q01DX005 (ip), vehicle: Klucel (hydroxypropylcellulose) (HPC).
Setting [4] is: dose: 200.0 mg/kg/injection, schedule: Q01DX005 (ip), vehicle: Klucel (hydroxypropylcellulose) (HPC).

Turning to `CN1c2c(nc(N)[nH]c2=O)NCC1CCNc1ccc(C(=O)NC(CCC(=O)O)C(=O)O)cc1` (configuration not stated), the T/C by setting is: (dose: 25.0 mg/kg/injection, schedule: Q01DX009 (ip), vehicle: Klucel (hydroxypropylcellulose) (HPC)) 115 % of control; (dose: 50.0 mg/kg/injection, schedule: Q01DX009 (ip), vehicle: Klucel (hydroxypropylcellulose) (HPC)) 115 % of control; (dose: 75.0 mg/kg/injection, schedule: Q01DX005 (ip), vehicle: saline) 100 % of control; (dose: 75.0 mg/kg/injection, schedule: Q01DX005 (iv), vehicle: saline) 100 % of control; (dose: 75.0 mg/kg/injection, schedule: Q01DX009 (ip), vehicle: saline) 105 % of control; (dose: 75.0 mg/kg/injection, schedule: Q01DX009 (ip), vehicle: sodium bicarbonate) 112 % of control. Further, the T/C reads like this: (dose: 100.0 mg/kg/injection, schedule: Q01DX009 (ip), vehicle: Klucel (hydroxypropylcellulose) (HPC)) 124 % of control; under setting [1], 113 % of control; (dose: 150.0 mg/kg/injection, schedule: Q01DX005 (ip), vehicle: saline) 107 % of control; (dose: 150.0 mg/kg/injection, schedule: Q01DX005 (iv), vehicle: saline) 107 % of control; (dose: 150.0 mg/kg/injection, schedule: Q01DX009 (ip), vehicle: saline) 108 % of control; (dose: 150.0 mg/kg/injection, schedule: Q01DX009 (ip), vehicle: sodium bicarbonate) 114 % of control. In addition, the T/C was 109 % of control and 123 % of control (dose: 300.0 mg/kg/injection, schedule: Q01DX005 (ip), vehicle: saline); 108 % of control and 113 % of control (dose: 300.0 mg/kg/injection, schedule: Q01DX005 (iv), vehicle: saline); 116 % of control (dose: 300.0 mg/kg/injection, schedule: Q01DX009 (ip), vehicle: saline); 120 % of control (dose: 300.0 mg/kg/injection, schedule: Q01DX009 (ip), vehicle: sodium bicarbonate); 107 % of control and 118 % of control (dose: 600.0 mg/kg/injection, schedule: Q01DX005 (ip), vehicle: saline); 104 % of control and 122 % of control (dose: 600.0 mg/kg/injection, schedule: Q01DX005 (iv), vehicle: saline). Besides, the T/C is, setting by setting: (dose: 600.0 mg/kg/injection, schedule: Q01DX009 (ip), vehicle: saline) 119 % of control; (dose: 600.0 mg/kg/injection, schedule: Q01DX009 (ip), vehicle: sodium bicarbonate) 122 % of control; (dose: 800.0 mg/kg/injection, schedule: Q01DX009 (ip), vehicle: Klucel (hydroxypropylcellulose) (HPC)) 99 % of control.

As to `O=C1c2ccccc2C(=O)c2cnccc21`, the T/C is 109 % of control under setting [2], 106 % of control under setting [3] and 106 % of control under setting [4].

Regarding `COc1ccc2c(c1)C1(C)CCN(C)CC(C1)C2O` (configuration not stated), the T/C by setting is: (dose: 50.0 mg/kg/injection, schedule: Q01DX009 (ip), vehicle: saline with Tween-80) 96 % of control and 104 % of control; (dose: 100.0 mg/kg/injection, schedule: Q01DX009 (ip), vehicle: saline with Tween-80) 91 % of control and 87 % of control; (dose: 200.0 mg/kg/injection, schedule: Q01DX009 (ip), vehicle: saline with Tween-80) 117 % of control.

On to `NC(Cc1cccc(NP(=S)(N2CC2)N2CC2)c1)C(=O)O` (configuration not stated), for which the T/C reads like this: (dose: 12.5 mg/kg/injection, schedule: Q04DX003 (ip), vehicle: saline) 109 % of control; (dose: 25.0 mg/kg/injection, schedule: Q04DX003 (ip), vehicle: saline) 118 % of control; (dose: 50.0 mg/kg/injection, schedule: Q01DX009 (ip), vehicle: saline) 159 % of control; (dose: 50.0 mg/kg/injection, schedule: Q04DX003 (ip), vehicle: saline with Tween-80) 103 % of control; (dose: 75.0 mg/kg/injection, schedule: Q04DX003 (ip), vehicle: saline with Tween-80) 92 % of control; under setting [1], 181 % of control. Also, the T/C is 183 % of control (dose: 100.0 mg/kg/injection, schedule: Q04DX003 (ip), vehicle: saline); 209 % of control (dose: 200.0 mg/kg/injection, schedule: Q01DX009 (ip), vehicle: saline); 225 % of control (dose: 200.0 mg/kg/injection, schedule: Q04DX003 (ip), vehicle: saline); 195 % of control (dose: 264.0 mg/kg/injection, schedule: Q04DX003 (ip), vehicle: saline); 245 % of control and 250 % of control (dose: 400.0 mg/kg/injection, schedule: Q04DX003 (ip), vehicle: saline).

On to `Cc1cc(=O)n2c(n1)sc1cc3ccccc3cc12`, for which the T/C reads like this: (dose: 100.0 mg/kg/injection, schedule: Q04DX002 (ip), vehicle: Klucel (hydroxypropylcellulose) (HPC)) 98 % of control; (dose: 200.0 mg/kg/injection, schedule: Q04DX002 (ip), vehicle: Klucel (hydroxypropylcellulose) (HPC)) 100 % of control; (dose: 400.0 mg/kg/injection, schedule: Q04DX002 (ip), vehicle: Klucel (hydroxypropylcellulose) (HPC)) 99 % of control.

With `CC1(C)CC2(C)OC(=O)c3ccccc3N2C(=S)N1` (configuration not stated), the T/C is 94 % of control (dose: 15.0 mg/kg/injection, schedule: Q01DX005 (ip), vehicle: saline with Tween-80); 95 % of control (dose: 30.0 mg/kg/injection, schedule: Q01DX005 (ip), vehicle: saline with Tween-80); 90 % of control and 96 % of control (dose: 60.0 mg/kg/injection, schedule: Q01DX005 (ip), vehicle: saline with Tween-80).

As to `CC1(C)OCC(C2OC3OC(C)(C)OC3C2(O)/C(N)=N/O)O1` (configuration not stated), the T/C (dose: 100.0 mg/kg/injection, schedule: Q04DX002 (ip), vehicle: saline) is 103 % of control; the T/C (dose: 200.0 mg/kg/injection, schedule: Q04DX002 (ip), vehicle: saline) was 112 % of control; the T/C (dose: 400.0 mg/kg/injection, schedule: Q04DX002 (ip), vehicle: saline) was 122 % of control.

Take `CCO/C([O-])=C(\C=N\S(=O)(=O)c1ccc(C)cc1)[n+]1ccc(C)cc1`: the T/C is, setting by setting: (dose: 100.0 mg/kg/injection, schedule: Q04DX003 (ip), vehicle: Klucel (hydroxypropylcellulose) (HPC)) 103 % of control; (dose: 200.0 mg/kg/injection, schedule: Q04DX003 (ip), vehicle: Klucel (hydroxypropylcellulose) (HPC)) 100 % of control; (dose: 400.0 mg/kg/injection, schedule: Q04DX003 (ip), vehicle: Klucel (hydroxypropylcellulose) (HPC)) 101 % of control.

For the compound `COc1ccc(Cl)c2c1C(=O)C1C(=O)C3C(O)=C(C(=O)NC(C)(C)C)C(=O)C(NC(=O)c4ccccc4)C3CC1C2` (configuration not stated), the T/C is, setting by setting: (dose: 60.0 mg/kg/injection, schedule: Q01DX005 (ip), vehicle: Klucel (hydroxypropylcellulose) (HPC)) 97 % of control; (dose: 120.0 mg/kg/injection, schedule: Q01DX005 (ip), vehicle: Klucel (hydroxypropylcellulose) (HPC)) 116 % of control; (dose: 240.0 mg/kg/injection, schedule: Q01DX005 (ip), vehicle: Klucel (hydroxypropylcellulose) (HPC)) 190 % of control.

On to `CC[C@H]1OC(=O)[C@H](C)[C@@H](OC2CC(C)(OC)C(O)C(C)O2)[C@H](C)[C@@H](OC2OC(C)CC(N(C)C)C2OC(=O)CCC2CCCC2)[C@](C)(O)C[C@@H](C)C(=O)[C@H](C)[C@@H](O)[C@]1(C)O` (some centres not stated), for which the T/C by setting is: under setting [2], 96 % of control; under setting [3], 100 % of control; under setting [4], 93 % of control.

`COC(=O)CC1=NNC(=O)C1`: the T/C is 93 % of control (dose: 100.0 mg/kg/injection, schedule: Q01DX001 (ip), vehicle: Klucel (hydroxypropylcellulose) (HPC)); 99 % of control (dose: 200.0 mg/kg/injection, schedule: Q01DX001 (ip), vehicle: Klucel (hydroxypropylcellulose) (HPC)); 100 % of control (dose: 400.0 mg/kg/injection, schedule: Q01DX001 (ip), vehicle: Klucel (hydroxypropylcellulose) (HPC)).

With `CC1=C(C2CO2)C(=O)c2ccccc2C1=O` (configuration not stated), the T/C is 104 % of control and 107 % of control (dose: 1.56 mg/kg/injection, schedule: Q01DX005 (ip), vehicle: Klucel (hydroxypropylcellulose) (HPC)); 103 % of control and 104 % of control (dose: 3.12 mg/kg/injection, schedule: Q01DX005 (ip), vehicle: Klucel (hydroxypropylcellulose) (HPC)); 99 % of control and 100 % of control and 94 % of control (dose: 6.25 mg/kg/injection, schedule: Q01DX005 (ip), vehicle: Klucel (hydroxypropylcellulose) (HPC)).
